According to patent US20230085307A1, “PYRIDAZINONE COMPOUND AND HERBICIDE” (NISSAN CHEMICAL CORPORATION, priority 2019, published 2023):

Legend:
velvetleaf [1] = test: Test Example 5: herbicidal effect by foliage application, plastic box (Table 20, symbol M); assay type: in vivo, velvetleaf (Abutilon theophrasti); conditions: foliage application, 320 g/ha, evaluated three weeks after application
In short: (§1)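 Foliar spray test: emulsion formulation diluted in water to a set application rate, sprayed onto 14-day-old plants raised in diluvial soil at 25° C to 30° C under glass. Both herbicidal effect and crop effect rated visually three weeks later.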

barnyard grass [2] = test: Test Example 4: herbicidal effect by soil treatment (Table 19, symbol H); assay type: in vivo, barnyard grass (Echinochloa crus-galli); conditions: amount of applied herbicide 320 g/ha
In short: (§2)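 Herbicidal effect was rated 3 weeks after treatment, using the scoring criteria of an earlier test. The compound, formulated as an emulsion and diluted in water to a set herbicide amount, had been sprayed uniformly on soil over freshly sown seeds. Growth took place in a greenhouse at 25° C. to 30° C.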

velvetleaf [3] = test: Test Example 4: herbicidal effect by soil treatment (Table 19, symbol M); assay type: in vivo, velvetleaf (Abutilon theophrasti); conditions: amount of applied herbicide 320 g/ha
In short: as §2

lambsquarters [4] = test: Test Example 4: herbicidal effect by soil treatment (Table 19, symbol O); assay type: in vivo, lambsquarters (Chenopodium album); conditions: amount of applied herbicide 320 g/ha
In short: as §2

redroot pigweed [5] = test: Test Example 5: herbicidal effect by foliage application, plastic box (Table 20, symbol N); assay type: in vivo, redroot pigweed (Amaranthus retroflexus); conditions: foliage application, 320 g/ha, evaluated three weeks after application
In short: as §1

wild oat [6] = test: Test Example 5: herbicidal effect by foliage application, plastic box (Table 20, symbol I); assay type: in vivo, wild oat (Avena fatua); conditions: foliage application, 320 g/ha, evaluated three weeks after application
In short: as §1

southern crabgrass [7] = test: Test Example 4: herbicidal effect by soil treatment (Table 19, symbol F); assay type: in vivo, southern crabgrass (Digitaria ciliaris); conditions: amount of applied herbicide 320 g/ha
In short: as §2

windgrass [8] = test: Test Example 5: herbicidal effect by foliage application, plastic box (Table 20, symbol L); assay type: in vivo, windgrass (Apera spica-venti); conditions: foliage application, 320 g/ha, evaluated three weeks after application
In short: as §1

persian speedwell [9] = test: Test Example 4: herbicidal effect by soil treatment (Table 19, symbol R); assay type: in vivo, Persian speedwell (Veronica persica); conditions: amount of applied herbicide 320 g/ha
In short: as §2

green foxtail [10] = test: Test Example 5: herbicidal effect by foliage application, plastic box (Table 20, symbol G); assay type: in vivo, green foxtail (Setaria viridis); conditions: foliage application, 320 g/ha, evaluated three weeks after application
In short: as §1

blackgrass [11] = test: Test Example 4: herbicidal effect by soil treatment (Table 19, symbol J); assay type: in vivo, blackgrass (Alopecurus myosuroides); conditions: amount of applied herbicide 320 g/ha
In short: as §2

barnyard grass [12] = test: Test Example 5: herbicidal effect by foliage application, plastic box (Table 20, symbol H); assay type: in vivo, barnyard grass (Echinochloa crus-galli); conditions: foliage application, 320 g/ha, evaluated three weeks after application
In short: as §1

windgrass [13] = test: Test Example 4: herbicidal effect by soil treatment (Table 19, symbol L); assay type: in vivo, windgrass (Apera spica-venti); conditions: amount of applied herbicide 320 g/ha
In short: as §2

barnyard grass [14] = test: Test Example 3: herbicidal effect by foliage application, Wagner pot (Table 18, symbol H); assay type: in vivo, barnyard grass (Echinochloa crus-galli); conditions: amount of applied herbicide 320 g/ha
In short: (§3)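 Plants were sown in alluvial soil held under 0.1–0.5 cm standing water and grown 14 days in a greenhouse at 25–30 °C. An emulsifiable formulation, water-diluted to the set dose, was then sprayed onto the foliage, and effects were scored three weeks later using previously defined criteria.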

lambsquarters [15] = test: Test Example 5: herbicidal effect by foliage application, plastic box (Table 20, symbol O); assay type: in vivo, lambsquarters (Chenopodium album); conditions: foliage application, 320 g/ha, evaluated three weeks after application
In short: as §1

blackgrass [16] = test: Test Example 5: herbicidal effect by foliage application, plastic box (Table 20, symbol J); assay type: in vivo, blackgrass (Alopecurus myosuroides); conditions: foliage application, 320 g/ha, evaluated three weeks after application
In short: as §1

Italian ryegrass [17] = test: Test Example 5: herbicidal effect by foliage application, plastic box (Table 20, symbol K); assay type: in vivo, Italian ryegrass (Lolium multiflorum); conditions: foliage application, 320 g/ha, evaluated three weeks after application
In short: as §1

Chinese sprangletop = test: Test Example 3: herbicidal effect by foliage application, Wagner pot (Table 18, symbol D); assay type: in vivo, chinese sprangletop (Leptochloa chinensis); conditions: amount of applied herbicide 320 g/ha
In short: as §3

chickweed [18] = test: Test Example 5: herbicidal effect by foliage application, plastic box (Table 20, symbol P); assay type: in vivo, common chickweed (Stellaria media); conditions: foliage application, 320 g/ha, evaluated three weeks after application
In short: as §1

persian speedwell [19] = test: Test Example 5: herbicidal effect by foliage application, plastic box (Table 20, symbol R); assay type: in vivo, Persian speedwell (Veronica persica); conditions: foliage application, 320 g/ha, evaluated three weeks after application
In short: as §1

redroot pigweed [20] = test: Test Example 4: herbicidal effect by soil treatment (Table 19, symbol N); assay type: in vivo, redroot pigweed (Amaranthus retroflexus); conditions: amount of applied herbicide 320 g/ha
In short: as §2

wild oat [21] = test: Test Example 4: herbicidal effect by soil treatment (Table 19, symbol I); assay type: in vivo, wild oat (Avena fatua); conditions: amount of applied herbicide 320 g/ha
In short: as §2

green foxtail [22] = test: Test Example 4: herbicidal effect by soil treatment (Table 19, symbol G); assay type: in vivo, green foxtail (Setaria viridis); conditions: amount of applied herbicide 320 g/ha
In short: as §2

chickweed [23] = test: Test Example 4: herbicidal effect by soil treatment (Table 19, symbol P); assay type: in vivo, common chickweed (Stellaria media); conditions: amount of applied herbicide 320 g/ha
In short: as §2

rice flat sedge = test: Test Example 3: herbicidal effect by foliage application, Wagner pot (Table 18, symbol E); assay type: in vivo, rice flat sedge (Cyperus iria); conditions: amount of applied herbicide 320 g/ha
In short: as §3

southern crabgrass [24] = test: Test Example 5: herbicidal effect by foliage application, plastic box (Table 20, symbol F); assay type: in vivo, southern crabgrass (Digitaria ciliaris); conditions: foliage application, 320 g/ha, evaluated three weeks after application
In short: as §1

Italian ryegrass [25] = test: Test Example 4: herbicidal effect by soil treatment (Table 19, symbol K); assay type: in vivo, Italian ryegrass (Lolium multiflorum); conditions: amount of applied herbicide 320 g/ha
In short: as §2

| SMILES | herbicidal effect on M: velvetleaf (velvetleaf [1]) | H: barnyard grass, herbicidal effect rating (barnyard grass [2]) | M: velvetleaf, herbicidal effect rating (velvetleaf [3]) | O: lambsquarters, herbicidal effect rating (lambsquarters [4]) | herbicidal effect on N: redroot pigweed (redroot pigweed [5]) | herbicidal effect on I: wild oat (wild oat [6]) | F: southern crabgrass, herbicidal effect rating (southern crabgrass [7]) | herbicidal effect on L: windgrass (windgrass [8]) | R: persian speedwell, herbicidal effect rating (persian speedwell [9]) | herbicidal effect on G: green foxtail (green foxtail [10]) | J: blackgrass, herbicidal effect rating (blackgrass [11]) | herbicidal effect on H: barnyard grass (barnyard grass [12]) | L: windgrass, herbicidal effect rating (windgrass [13]) | herbicidal effect on H: barnyard grass (barnyard grass [14]) | herbicidal effect on O: lambsquarters (lambsquarters [15]) | herbicidal effect on J: blackgrass (blackgrass [16]) | herbicidal effect on K: Italian ryegrass (Italian ryegrass [17]) | herbicidal effect on D: Chinese sprangletop (Chinese sprangletop) | herbicidal effect on P: chickweed (chickweed [18]) | herbicidal effect on R: persian speedwell (persian speedwell [19]) | also measured |
| --- | --- | --- | --- | --- | --- | --- | --- | --- | --- | --- | --- | --- | --- | --- | --- | --- | --- | --- | --- | --- | --- |
| Cc1ccc(-c2sc3ccc(C)cc3c2-c2c(O)c(C)nn(C)c2=O)cc1 [2-136] | 5 (Herbicidal rate of 90% or more (almost completely withered)) | 0 (Herbicidal rate of 5% or less (almost no effect)) | 0 (Herbicidal rate of 5% or less (almost no effect)) | 5 (Herbicidal rate of 90% or more (almost completely withered)) | 5 (Herbicidal rate of 90% or more (almost completely withered)) | 0 (Herbicidal rate of 5% or less (almost no effect)) | 3 (Herbicidal rate of 40% or more and less than 70%) | 0 (Herbicidal rate of 5% or less (almost no effect)) | 5 (Herbicidal rate of 90% or more (almost completely withered)) | 0 (Herbicidal rate of 5% or less (almost no effect)) | 0 (Herbicidal rate of 5% or less (almost no effect)) | 0 (Herbicidal rate of 5% or less (almost no effect)) | 0 (Herbicidal rate of 5% or less (almost no effect)) | 2 (Herbicidal rate of 20% or more and less than 40%) | 4 (Herbicidal rate of 70% or more and less than 90%) | 0 (Herbicidal rate of 5% or less (almost no effect)) | 5 (Herbicidal rate of 90% or more (almost completely withered)) | 0 (Herbicidal rate of 5% or less (almost no effect)) | 5 (Herbicidal rate of 90% or more (almost completely withered)) | 5 (Herbicidal rate of 90% or more (almost completely withered)) | N: redroot pigweed, herbicidal effect rating (redroot pigweed [20]): 5 (Herbicidal rate of 90% or more (almost completely withered)); I: wild oat, herbicidal effect rating (wild oat [21]): 0 (Herbicidal rate of 5% or less (almost no effect)); G: green foxtail, herbicidal effect rating (green foxtail [22]): 0 (Herbicidal rate of 5% or less (almost no effect)); P: chickweed, herbicidal effect rating (chickweed [23]): 4 (Herbicidal rate of 70% or more and less than 90%); herbicidal effect on E: rice flat sedge (rice flat sedge): 5 (Herbicidal rate of 90% or more (almost completely withered)); herbicidal effect on F: southern crabgrass (southern crabgrass [24]): 0 (Herbicidal rate of 5% or less (almost no effect)); K: Italian ryegrass, herbicidal effect rating (Italian ryegrass [25]): 3 (Herbicidal rate of 40% or more and less than 70%) |
| CCCC(=O)Oc1c(C)nn(C)c(=O)c1-c1c(-c2ccc(C)cc2)sc2ccc(C)cc12 [2-137] | 4 (Herbicidal rate of 70% or more and less than 90%) | 0 (Herbicidal rate of 5% or less (almost no effect)) | 0 (Herbicidal rate of 5% or less (almost no effect)) | 0 (Herbicidal rate of 5% or less (almost no effect)) | 4 (Herbicidal rate of 70% or more and less than 90%) | 0 (Herbicidal rate of 5% or less (almost no effect)) | 0 (Herbicidal rate of 5% or less (almost no effect)) | 0 (Herbicidal rate of 5% or less (almost no effect)) | 1 (Herbicidal rate of 5% or more and less than 20%) | 3 (Herbicidal rate of 40% or more and less than 70%) | 0 (Herbicidal rate of 5% or less (almost no effect)) | 0 (Herbicidal rate of 5% or less (almost no effect)) | 0 (Herbicidal rate of 5% or less (almost no effect)) | 1 (Herbicidal rate of 5% or more and less than 20%) | 2 (Herbicidal rate of 20% or more and less than 40%) | 0 (Herbicidal rate of 5% or less (almost no effect)) | 4 (Herbicidal rate of 70% or more and less than 90%) | 1 (Herbicidal rate of 5% or more and less than 20%) | 5 (Herbicidal rate of 90% or more (almost completely withered)) | 5 (Herbicidal rate of 90% or more (almost completely withered)) | N: redroot pigweed, herbicidal effect rating (redroot pigweed [20]): 0 (Herbicidal rate of 5% or less (almost no effect)); I: wild oat, herbicidal effect rating (wild oat [21]): 0 (Herbicidal rate of 5% or less (almost no effect)); G: green foxtail, herbicidal effect rating (green foxtail [22]): 0 (Herbicidal rate of 5% or less (almost no effect)); P: chickweed, herbicidal effect rating (chickweed [23]): 4 (Herbicidal rate of 70% or more and less than 90%); herbicidal effect on E: rice flat sedge (rice flat sedge): 5 (Herbicidal rate of 90% or more (almost completely withered)); herbicidal effect on F: southern crabgrass (southern crabgrass [24]): 0 (Herbicidal rate of 5% or less (almost no effect)); K: Italian ryegrass, herbicidal effect rating (Italian ryegrass [25]): 2 (Herbicidal rate of 20% or more and less than 40%) |
